Results from patent US20250127825A1, “PROBIOTIC COMPOSITIONS AND METHODS OF USE THEREOF FOR WEIGHT LOSS” (priority 2023, published 2025).

System: C. elegans worms
Assay: Nile Red lipid staining of worm intestine after 48 hours on experimental diet, non-obesogenic setting
Type: in vivo
Conditions: for Normalized Nile Red fluorescence, Mean / Normalized Nile Red fluorescence, Median: divided by mean fluorescence of standard diet; for Mean Diff. of fluorescence, Standard E. coli Diet vs. Orlistat / Mean Diff. of fluorescence, Orlistat vs. UF1 100 mg/ml / Mean Diff. of fluorescence, Orlistat vs. UF1 OD7 / Mean Diff. of fluorescence, Standard E. coli Diet vs. UF1 100 mg/ml / Mean Diff. of fluorescence, Standard E. coli Diet vs. UF1 OD7: Holm-Šidák's multiple comparisons test; for Nile Red fluorescence intensity, Mean / Nile Red fluorescence intensity, Median: 48 hours, non-obesogenic; for reduced fat levels compared to the Orlistat control / reduced fat levels compared to the standard E. coli OP50 control diet: reduction
Method: In this example the weight loss potential of the UF1 probiotic strain was studied. The UF1 probiotic strain was tested in a non-obesogenic setting by measuring the amount of internal fat in UF1-treated worms compared to no treatment controls. Orlistat treatment was also included as a positive control for fat reduction.
Methodology—Worms were raised to the L4 larval stage using standard plate culture methods. The L4 larvae were then loaded into a microfluidic chip and fed a diet of live E. coli OP50 (20 mg/ml) in liquid nematode growth media (NGM). After 24 hours on the chip, the media for each experimental cohort was switched to the experimental diet. The animals were maintained on each experimental diet for 48 hours before being fixed and stained with Nile Red—a fluorescent dye that binds lipids. A fluorescent microscopy system was then used to image the brightness of the lipid staining in the intestine of the worms, which correlates to the levels of fat in each animal.
Nile Red gives off fluorescence when illuminated with green light. The brightness of the intestinal saining in each worm per trial was quantified. This allows the measurement of the natural variability in fat levels across individuals. ANOVA was then used to determine if the distributions across treatment conditions were statistically different to one another.
All datasets were combined by normalizing the data in each trial by dividing it by the mean fluorescence value of the standard diet. In the combined data, the UF1 diets reduced fat levels compared to the standard E. coli OP50 control diet by approximately 47% and 46%, respectively. The subjects also had reduced fat levels compared to the Orlistat control by approximately 38% and 37%, respectively.

[1] = All trials combined, Orlistat 6 μg/ml
[2] = Trial 1, live OP50 20 mg/ml + Orlistat 6 μg/ml
[3] = Trial 2, live OP50 20 mg/ml + Orlistat 6 μg/ml
[4] = Trial 3, live OP50 20 mg/ml + Orlistat 6 μg/ml
[5] = All trials combined, UF1 100 mg/ml diet
[6] = All trials combined, UF1 OD7 diet
[7] = All trials combined, normalized, UF1 100 mg/ml diet
[8] = All trials combined, normalized, UF1 OD7 diet
[9] = All trials combined, Holm-Šídák's multiple comparisons test
[10] = Combined data, UF1 100 mg/ml diet
[11] = Trial 1, UF1 100 mg/ml diet, mean fluorescence
[12] = Trial 1, UF1 OD7 diet, mean fluorescence
[13] = Trial 2, UF1 100 mg/ml diet, mean fluorescence
[14] = Trial 2, UF1 OD7 diet, mean fluorescence
[15] = Trial 3, UF1 100 mg/ml diet, mean fluorescence

## CCCCCCCCCCC[C@@H](C[C@@H]1OC(=O)[C@H]1CCCCCC)OC(=O)[C@H](CC(C)C)NC=O [Orlistat, reference compound]
[1]
  Normalized Nile Red fluorescence, Mean: 0.8579
  Normalized Nile Red fluorescence, Median: 0.8801
All trials combined, normalized, Orlistat 6 μg/ml
  Percentage Change from Standard Diet: −14.21%
All trials combined, Holm-Šídák's multiple comparisons test, Orlistat 6 μg/ml
  Mean Diff. of normalized fluorescence, Standard E. coli Diet vs. Orlistat: 0.1421
Trial 1, Orlistat 6 μg/ml
  Mean Diff. of fluorescence, Standard E. coli Diet vs. Orlistat: 628190
[2]
  Nile Red fluorescence intensity, Mean: 10354899
  Nile Red fluorescence intensity, Median: 10198510
Trial 1, live OP50 20 mg/ml + Orlistat 6 μg/ml, mean fluorescence
  Percentage Change from Standard Diet: −5.72%
Trial 2, Orlistat 6 μg/ml
  Mean Diff. of fluorescence, Standard E. coli Diet vs. Orlistat: 1621884
[3]
  Nile Red fluorescence intensity, Mean: 9011934
  Nile Red fluorescence intensity, Median: 8938493
Trial 2, live OP50 20 mg/ml + Orlistat 6 μg/ml, mean fluorescence
  Percentage Change from Standard Diet: −15.25%
Trial 3, Orlistat 6 μg/ml
  Mean Diff. of fluorescence, Standard E. coli Diet vs. Orlistat: 9789069
[4]
  Nile Red fluorescence intensity, Mean: 28212711
  Nile Red fluorescence intensity, Median: 23127648
Trial 3, live OP50 20 mg/ml + Orlistat 6 μg/ml, mean fluorescence
  Percentage Change from Standard Diet: −25.76%

## Propionibacterium freudenreichii UF1
[5]
  Normalized Nile Red fluorescence, Mean: 0.5321
  Normalized Nile Red fluorescence, Median: 0.5247
[6]
  Normalized Nile Red fluorescence, Mean: 0.5417
  Normalized Nile Red fluorescence, Median: 0.5207
[7]
  Percentage Change from Orlistat: −37.98%
  Percentage Change from Standard Diet: −46.79%
[8]
  Percentage Change from Orlistat: −36.86%
  Percentage Change from Standard Diet: −45.83%
[9]
  Mean Diff. of normalized fluorescence, Orlistat vs. UF1 100 mg/ml: 0.3259
  Mean Diff. of normalized fluorescence, Orlistat vs. UF1 OD7: 0.3162
  Mean Diff. of normalized fluorescence, Standard E. coli Diet vs. UF1 100 mg/ml: 0.4679
  Mean Diff. of normalized fluorescence, Standard E. coli Diet vs. UF1 OD7: 0.4583
[10]
  reduced fat levels compared to the Orlistat control: approximately 38%
  reduced fat levels compared to the standard E. coli OP50 control diet: approximately 47%
Combined data, UF1 OD7 diet
  reduced fat levels compared to the Orlistat control: ~37%
  reduced fat levels compared to the standard E. coli OP50 control diet: ~46%
Trial 1
  Mean Diff. of fluorescence, Orlistat vs. UF1 100 mg/ml: 5160787
  Mean Diff. of fluorescence, Orlistat vs. UF1 OD7: 5293675
  Mean Diff. of fluorescence, Standard E. coli Diet vs. UF1 100 mg/ml: 5788977
  Mean Diff. of fluorescence, Standard E. coli Diet vs. UF1 OD7: 5921865
Trial 1, UF1 100 mg/ml diet
  less fat than the Orlistat control: approximately 50%
  Nile Red fluorescence intensity, Mean: 5194112
  Nile Red fluorescence intensity, Median: 5124444
  reduced fat levels compared to the standard E. coli OP50 control diet: approximately 53%
[11]
  Percentage Change from Orlistat: −49.84%
  Percentage Change from Standard Diet: −52.71%
Trial 1, UF1 OD7 diet
  less fat than the Orlistat control: ~51%
  Nile Red fluorescence intensity, Mean: 5061224
  Nile Red fluorescence intensity, Median: 5147920
  reduced fat levels compared to the standard E. coli OP50 control diet: ~54%
[12]
  Percentage Change from Orlistat: −51.12%
  Percentage Change from Standard Diet: −53.92%
Trial 2
  Mean Diff. of fluorescence, Orlistat vs. UF1 100 mg/ml: 1399524
  Mean Diff. of fluorescence, Orlistat vs. UF1 OD7: 2435073
  Mean Diff. of fluorescence, Standard E. coli Diet vs. UF1 100 mg/ml: 3021408
  Mean Diff. of fluorescence, Standard E. coli Diet vs. UF1 OD7: 4056957
Trial 2, UF1 100 mg/ml diet
  less fat than the Orlistat control: approximately 16%
  Nile Red fluorescence intensity, Mean: 7612410
  Nile Red fluorescence intensity, Median: 7441676
  reduced fat levels compared to the standard E. coli OP50 control diet: approximately 28%
[13]
  Percentage Change from Orlistat: −15.53%
  Percentage Change from Standard Diet: −28.41%
Trial 2, UF1 OD7 diet
  less fat than the Orlistat control: ~27%
  Nile Red fluorescence intensity, Mean: 6576861
  Nile Red fluorescence intensity, Median: 6691779
  reduced fat levels compared to the standard E. coli OP50 control diet: ~38%
[14]
  Percentage Change from Orlistat: −27.02%
  Percentage Change from Standard Diet: −38.15%
Trial 3
  Mean Diff. of fluorescence, Orlistat vs. UF1 100 mg/ml: 9045435
  Mean Diff. of fluorescence, Standard E. coli Diet vs. UF1 100 mg/ml: 18834504
Trial 3, UF1 100 mg/ml diet
  less fat than the Orlistat control: approximately 32%
  Nile Red fluorescence intensity, Mean: 19167276
  Nile Red fluorescence intensity, Median: 20425415
[15]
  Percentage Change from Orlistat: −32.06%
  Percentage Change from Standard Diet: −49.56%
Trial 3, UF1 diets (UF1 100 mg/ml)
  reduced fat levels compared to the standard E. coli OP50 control diet: approximately 50%
UF1 diets, conclusion in words
  reduction in fat level compared with Orlistat: stronger reduction in fat level than the anti-obesity drug Orlistat
non-obesogenic conditions, conclusion in words
  levels of fat in the intestines of C. elegans worms: reduced the levels of fat
